ChEMBL document CHEMBL5634138, “Discovery of a novel BLT2 antagonist for the treatment of inflammatory airway diseases” (Eur J Med Chem, 2023)
Each block holds one compound with its values, some of them ahead of it. Activity calls are given as the source filed them. The calls are words filed in the database; no cut-off is given here.

How the values were obtained:
[1] = (§1) Cytotoxicity against CHO cells assessed as inhibition of cell growth at 10 uM incubated overnight by MTS assay reltive to control; type: toxicity, cell-based, Cricetulus griseus; conditions: chinese hamster, CHO cells, read-out: Activity
CHO [2] = assay: as §1; type: toxicity, cell-based, Cricetulus griseus; conditions: chinese hamster, cho, 10 µM
Mus musculus [3] = assay: Anti-asthmatic activity against OVA/LPS induced BALB/c mouse model assessed as reduction in bronchial hyper-response at 10 mg/kg, ip for one hr before every challenge on day 14 to 16 and measured after 17 days relative to control; type: functional; parameters: scale not given: the % may be the effect or the level left; conditions: time 17 day
Mus musculus [4] = assay: Anti-asthmatic activity against OVA/LPS induced BALB/c mouse model assessed as decrease in bronchoalveolar lavage fluid (BALF) IL-4 level at 10 mg/kg, ip by ELISA method relative to control; type: functional; parameters: scale not given: the % may be the effect or the level left
Mus musculus [5] = assay: Anti-asthmatic activity against OVA/LPS induced BALB/c mouse model assessed as decrease in bronchoalveolar lavage fluid (BALF) IL-13 level at 10 mg/kg, ip by ELISA method relative to control; type: functional; parameters: scale not given: the % may be the effect or the level left
Mus musculus [6] = assay: Anti-asthmatic activity against OVA/LPS induced BALB/c mouse model assessed as decrease in bronchoalveolar lavage fluid (BALF) IL-5 level at 10 mg/kg, ip by ELISA method relative to control; type: functional; parameters: scale not given: the % may be the effect or the level left
[7] = Metabolic stability in mouse liver microsomes assessed as parent compound remaining measured after 30 mins in absence of NADPH; type: ADME, Microsome; conditions: read-out: Stability
[8] = Metabolic stability in human liver microsomes assessed as parent compound remaining measured after 30 mins in presence of […]; type: ADME, Microsome; conditions: read-out: Stability
[9] = Metabolic stability in mouse liver microsomes assessed as parent compound remaining measured after 30 mins in presence of […]; type: ADME, Microsome; conditions: read-out: Stability
CHO [10] = assay: Inhibition of Akt phosphorylation (unknown origin) expressed in CHO cells harbouring BLT2 by Western blot analysis; type: cell-based; conditions: Homo sapiens
[11] = Metabolic stability in human liver microsomes assessed as parent compound remaining measured after 30 mins in presence of NADPH; type: ADME, Microsome; conditions: read-out: Stability
[12] = Metabolic stability in human liver microsomes assessed as parent compound remaining measured after 30 mins in absence of […]; type: ADME, Microsome; conditions: read-out: Stability
[13] = Metabolic stability in mouse liver microsomes assessed as parent compound remaining measured after 30 mins in presence of NADPH; type: ADME, Microsome; conditions: read-out: Stability
[14] = Metabolic stability in mouse liver microsomes assessed as parent compound remaining measured after 30 mins in absence of […]; type: ADME, Microsome; conditions: read-out: Stability
[15] = molecular target: Leukotriene B4 receptor 1 (Homo sapiens) (UniProt Q15722); assay: Antagonist activity at human BLT1 expressed in CHO cells assessed as inhibition of LTB4 induced cell migration at 10 uM measured after 3 hrs by chemotaxis assay relative to control; type: cell-based; parameters: scale not given: the % may be the effect or the level left; conditions: filed as antagonist
CHO [16] = assay: Inhibition of Akt phosphorylation (unknown origin) expressed in CHO cells harbouring BLT1 by Western blot analysis; type: cell-based; conditions: Homo sapiens
[17] = Solubility of the compound in deionized water; type: physicochemical; conditions: buffer
[18] = Metabolic stability in human liver microsomes assessed as parent compound remaining measured after 30 mins in absence of NADPH; type: ADME, Microsome; conditions: read-out: Stability

Leukotriene B4 receptor 1 (Homo sapiens), sequence (Q15722 whole entry): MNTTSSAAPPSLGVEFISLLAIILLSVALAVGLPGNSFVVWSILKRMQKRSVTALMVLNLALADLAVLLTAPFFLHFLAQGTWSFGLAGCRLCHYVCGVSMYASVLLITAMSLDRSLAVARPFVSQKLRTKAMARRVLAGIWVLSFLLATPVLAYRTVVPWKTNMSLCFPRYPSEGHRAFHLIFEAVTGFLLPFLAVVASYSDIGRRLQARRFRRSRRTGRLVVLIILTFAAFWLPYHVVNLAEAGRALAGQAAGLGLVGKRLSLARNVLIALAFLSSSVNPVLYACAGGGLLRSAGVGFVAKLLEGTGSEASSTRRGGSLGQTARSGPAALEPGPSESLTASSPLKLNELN

SMILES: CCCCC(=O)N(Cc1ccc(-c2ccccc2CCC(=O)O)cc1)c1ccccc1
- inhibition at 10 µM [1]: 4%

SMILES: CCCCC(=O)N(Cc1ccc(-c2ccc(C(=O)O)cc2)cc1)c1ccccc1F
- Activity (CHO [2]): Non-Toxic

SMILES: CCCCC(=O)N(Cc1ccc(-c2ccc(C(N)=O)cc2)cc1)c1ccccc1
- Activity (CHO [2]): Non-Toxic

SMILES: CCCCC(=O)N(Cc1ccc(-c2ccc(OCCC(=O)O)cc2)cc1)c1cccc(F)c1
- Activity (CHO [2]): Non-Toxic

SMILES: CCc1cc(C(C)=O)c(O)cc1OCCCCCC(C)(C)c1nn[nH]n1 [LY-255283]
- Activity (Mus musculus [3]): 69%
- Activity (Mus musculus [4]): 38%
- Activity (Mus musculus [5]): 38%
- Activity (Mus musculus [6]): 48%

SMILES: CCCCC(=O)N(Cc1ccc(-c2ccc(C(=O)N3CCN(C)CC3)cc2)cc1)c1ccccc1
- Activity (CHO [2]): Non-Toxic

SMILES: CCCCC(=O)N(Cc1ccc(-c2ccc(O)cc2)cc1)c1cccc(C)c1
- inhibition at 10 µM [1]: 24%

SMILES: CCCCC(=O)N(Cc1ccc(-c2ccccc2CC(=O)O)cc1)c1ccccc1
- inhibition at 10 µM [1]: 25%

SMILES: CCCCC(=O)N(Cc1ccc(-c2ccc(OCC(=O)O)cc2)cc1)c1cccc(C)c1
- Activity (CHO [2]): Non-Toxic

SMILES: CCCCC(=O)N(Cc1ccc(-c2ccc(OCC(=O)O)cc2)cc1)c1ccccc1
- Activity (CHO [2]): Non-Toxic

- remaining at 0.5 h [7]: 84.2%
- remaining at 0.5 h [8]: 92.8%
- remaining at 0.5 h [9]: 70.1%
- remaining at 0.5 h [11]: 33.5%
- remaining at 0.5 h [12]: 98.8%
- remaining at 0.5 h [13]: 2.2%
- remaining at 0.5 h [14]: 90.4%
- Activity [15]: 90%
- solubility [17]: < 0.02 µg/mL
- remaining at 0.5 h [18]: 96.8%
SMILES: CCCCC(=O)N(Cc1ccc(-c2ccc(O)cc2)cc1)c1cccc(F)c1
- Activity (CHO [2]): Non-Toxic
- inhibition (CHO [10]): Active
- inhibition (CHO [16]): Active

SMILES: CCCCC(=O)N(Cc1ccc(-c2ccc(N)cc2)cc1)c1ccccc1
- Activity (CHO [2]): Non-Toxic

SMILES: CCCCC(=O)N(Cc1ccc(-c2ccc(OC)cc2)cc1)c1cccc(C)c1
- Activity (CHO [2]): Non-Toxic

SMILES: CCCCC(=O)N(Cc1ccc(-c2ccc(O)cc2)nc1)c1cccc(F)c1
- Activity (CHO [2]): Non-Toxic

SMILES: CCCCC(=O)N(Cc1ccc(-c2cccc(C(=O)O)c2)cc1)c1ccccc1
- Activity (CHO [2]): Non-Toxic

SMILES: CCCCC(=O)N(Cc1ccc(-c2ccc(O)cc2)cc1)c1cccc(C(F)(F)F)c1
- inhibition at 10 µM [1]: 5%
